This is an account of results in ChEMBL document CHEMBL3045187, “Chemical weed control in seedbed sown onion (Allium cepa L.)” (Crop Prot, 2006).

Data set [1] has as its system Cyperus rotundus. Briefly: Herbicidal activity against Cyperus rotundus assessed as total fresh weight at 2.5 kg/ha applied as spray before seed sowing (reference value: 23.6 MT/ha). It is filed as functional.
Data set [2] deals with Chenopodiastrum murale. Briefly: Herbicidal activity against Chenopodium murale assessed as total fresh weight at 2.5 kg/ha applied as spray before seed sowing (reference value: 23.6 MT/ha). Type of data set: functional.
Data set [3] relates to Malva sylvestris. Briefly: Herbicidal activity against Malva sylvestris assessed as total fresh weight at 2.5 kg/ha applied as spray before seed sowing (reference value: 23.6 MT/ha). Type of data set: functional.
Data set [4] has as its system Cyperus rotundus. Description: Herbicidal activity against Cyperus rotundus assessed as total dry weight at 2.5 kg/ha applied as spray before seed sowing (reference value: 4.1 MT/ha). It is filed as functional.
Data set [5] has as its system Malva sylvestris. Description: Herbicidal activity against Malva sylvestris assessed as total dry weight at 2.5 kg/ha applied as spray before seed sowing (reference value: 4.1 MT/ha). It is filed as functional.
Data set [6] relates to Chenopodiastrum murale. Briefly: Herbicidal activity against Chenopodium murale assessed as total dry weight at 2.5 kg/ha applied as spray before seed sowing (reference value: 4.1 MT/ha). Type of data set: functional.
Data set [7] deals with Allium cepa. Description: Phytotoxicity in Allium cepa (onion) seedling assessed as total fresh weight at 2.5 kg/ha applied as spray before seed sowing (reference value: 7.71 MT/ha). It is filed as organism-based. The following applies: in vivo, other.
The test system of data set [8] is Cyperus rotundus. Description: Herbicidal activity against Cyperus rotundus assessed as total fresh weight at 1.5 kg/ha applied as spray before seed sowing (reference value: 23.6 MT/ha). Type of data set: functional. Particulars: pooled result: one value given for 3 cell lines, strains, targets or settings.
The test system of data set [9] is Cyperus rotundus. Description: Herbicidal activity against Cyperus rotundus assessed as total dry weight at 1.5 kg/ha applied as spray before seed sowing (reference value: 4.1 MT/ha). Type of data set: functional. Particulars: pooled result: one value given for 3 cell lines, strains, targets or settings.
Data set [10] deals with Allium cepa. Briefly: Phytotoxicity in Allium cepa (onion) seedling assessed as total fresh weight at 1.5 kg/ha applied as spray before seed sowing (reference value: 7.71 MT/ha). Particulars: in vivo, other. It is filed as organism-based.
The subject of data set [11] is Cyperus rotundus. Briefly: Herbicidal activity against Cyperus rotundus assessed as total fresh weight at 3.2 kg/ha applied as spray before seed sowing (reference value: 23.6 MT/ha). It is filed as functional.
Data set [12] has as its system Malva sylvestris. Description: Herbicidal activity against Malva sylvestris assessed as total fresh weight at 3.2 kg/ha applied as spray before seed sowing (reference value: 23.6 MT/ha). It is filed as functional.
For data set [13], the system named is Chenopodiastrum murale. Description: Herbicidal activity against Chenopodium murale assessed as total fresh weight at 3.2 kg/ha applied as spray before seed sowing (reference value: 23.6 MT/ha). It is filed as functional.
Data set [14] relates to Chenopodiastrum murale. Description: Herbicidal activity against Chenopodium murale assessed as total dry weight at 3.2 kg/ha applied as spray before seed sowing (reference value: 4.1 MT/ha). It is filed as functional.
Data set [15] relates to Cyperus rotundus. Description: Herbicidal activity against Cyperus rotundus assessed as total dry weight at 3.2 kg/ha applied as spray before seed sowing (reference value: 4.1 MT/ha). It is filed as functional.
The test system of data set [16] is Malva sylvestris. Briefly: Herbicidal activity against Malva sylvestris assessed as total dry weight at 3.2 kg/ha applied as spray before seed sowing (reference value: 4.1 MT/ha). It is filed as functional.
Data set [17] has as its system Allium cepa. Description: Phytotoxicity in Allium cepa (onion) seedling assessed as total fresh weight at 3.2 kg/ha applied as spray before seed sowing (reference value: 7.71 MT/ha). It is filed as organism-based. The following applies: in vivo, other.
Data set [18] relates to Cyperus rotundus. Briefly: Herbicidal activity against Cyperus rotundus assessed as total dry weight at 0.1 kg/ha applied as spray during post-emergence (reference value: 4.1 MT/ha). It is filed as functional.
Data set [19] has as its system Malva sylvestris. Briefly: Herbicidal activity against Malva sylvestris assessed as total dry weight at 0.1 kg/ha applied as spray during post-emergence (reference value: 4.1 MT/ha). It is filed as functional.
Data set [20] relates to Chenopodiastrum murale. Description: Herbicidal activity against Chenopodium murale assessed as total dry weight at 0.1 kg/ha applied as spray during postemergence (reference value: 4.1 MT/ha). Type of data set: functional.
Data set [21] has as its system Cyperus rotundus. Briefly: Herbicidal activity against Cyperus rotundus assessed as total fresh weight at 0.1 kg/ha applied as spray during post-emergence (reference value: 23.6 MT/ha). Type of data set: functional.
The test system of data set [22] is Malva sylvestris. Briefly: Herbicidal activity against Malva sylvestris assessed as total fresh weight at 0.1 kg/ha applied as spray during post-emergence (reference value: 23.6 MT/ha). Type of data set: functional.
The test system of data set [23] is Chenopodiastrum murale. Description: Herbicidal activity against Chenopodium murale assessed as total fresh weight at 0.1 kg/ha applied as spray during postemergence (reference value: 23.6 MT/ha). Type of data set: functional.
Data set [24] deals with Allium cepa. Briefly: Phytotoxicity in Allium cepa (onion) seedling assessed as total fresh weight at 0.1 kg/ha applied as spray during postemergence (reference value: 7.71 MT/ha). The following applies: in vivo, other. Type of data set: organism-based.
Data set [25] concerns Cyperus rotundus. Briefly: Herbicidal activity against Cyperus rotundus assessed as total dry weight at 0.86 kg/ha applied as spray before seed sowing (reference value: 4.1 MT/ha). It is filed as functional.
The subject of data set [26] is Malva sylvestris. Description: Herbicidal activity against Malva sylvestris assessed as total dry weight at 0.86 kg/ha applied as spray before seed sowing (reference value: 4.1 MT/ha). Type of data set: functional.
Data set [27] concerns Chenopodiastrum murale. Briefly: Herbicidal activity against Chenopodium murale assessed as total dry weight at 0.86 kg/ha applied as spray before seed sowing (reference value: 4.1 MT/ha). It is filed as functional.
The subject of data set [28] is Malva sylvestris. Briefly: Herbicidal activity against Malva sylvestris assessed as total fresh weight at 0.86 kg/ha applied as spray before seed sowing (reference value: 23.6 MT/ha). Type of data set: functional.
Data set [29] has as its system Cyperus rotundus. Description: Herbicidal activity against Cyperus rotundus assessed as total fresh weight at 0.86 kg/ha applied as spray before seed sowing (reference value: 23.6 MT/ha). Type of data set: functional.
Data set [30] deals with Chenopodiastrum murale. Description: Herbicidal activity against Chenopodium murale assessed as total fresh weight at 0.86 kg/ha applied as spray before seed sowing (reference value: 23.6 MT/ha). It is filed as functional.
Data set [31] relates to Allium cepa. Briefly: Phytotoxicity in Allium cepa (onion) seedling assessed as total fresh weight at 0.86 kg/ha applied as spray before seed sowing (reference value: 7.71 MT/ha). It is filed as organism-based. Particulars: in vivo, other.

Regarding `CSc1nc(NC(C)C)nc(NC(C)C)n1` [PROMETRYN], the Activity is given as 19.8 MT/ha in data set [1]; 19.8 MT/ha in [2]; 19.8 MT/ha in [3]; 3.81 MT/ha in data set [4]; 3.81 MT/ha in data set [5]; 3.81 MT/ha in [6]. Besides, the Activity in data set [7] came to 3.67 MT/ha.
With `C#CC(C)(C)NC(=O)c1cc(Cl)cc(Cl)c1` [PRONAMIDE], the results for the Activity in [8], in data set [9] and in data set [10] were 20.5 MT/ha, 3.61 MT/ha and 6.67 MT/ha, respectively.
For `Nc1cnn(-c2ccccc2)c(=O)c1Cl` [PYRAZON], the Activity in data set [11] is 9.5 MT/ha; in [12], 9.5 MT/ha; in data set [13], 9.5 MT/ha; in data set [14] it was 1.94 MT/ha; in data set [15], 1.94 MT/ha; in data set [16], 1.94 MT/ha. Further, the Activity in [17] was 6.68 MT/ha.
Consider `CCOC(=O)C(C)Oc1ccc(Oc2cnc3cc(Cl)ccc3n2)cc1` (stereo unspecified) [QUIZALOFOP ETHYL ESTER], for which the Activity in data set [18] was found to be 2.52 MT/ha; in [19], 2.52 MT/ha; in data set [20] it was 2.52 MT/ha; in data set [21], 10.7 MT/ha; in [22], 10.7 MT/ha; in [23] it was 10.7 MT/ha. Besides, in data set [24], the Activity came to 10.11 MT/ha.
Consider `CCCN(CCC)c1c([N+](=O)[O-])cc(C(F)(F)F)cc1[N+](=O)[O-]` [TRIFLURALIN], for which the Activity in data set [25] is recorded as 2.69 MT/ha; in data set [26] it was 2.69 MT/ha; in data set [27], 2.69 MT/ha; in data set [28], 14.8 MT/ha; in [29], 14.8 MT/ha; in data set [30], 14.8 MT/ha. In [31], the Activity was found to be 7.04 MT/ha.
